Source: patent US20120040977A1, “INHIBITORS OF HCV NS5A” (PRESIDIO PHARMACEUTICALS, INC., priority 2009, published 2012)

What follows are molecules tested on HCV genotype 1b replicon (assay: HCV replicon assay (HCV 1b_Huh-Luc/Neo-ET cell line, luciferase readout)). Settings: Hepatitis C virus; bicistronic genotype 1b replicon in Huh 7 cells, 72 h incubation, luciferase enzyme activity; read-out: Inhibition of HCV genotype 1b.
Format: cell-based
Procedure: Biological activity of the compounds of the invention was determined using an HCV replicon assay. The HCV 1b_Huh-Luc/Neo-ET cell line persistently expressing a bicistronic genotype 1b replicon in Huh 7 cells was obtained from ReBLikon GMBH. This cell line was used to test compound inhibition using luciferase enzyme activity readout as a measurement of compound inhibition of replicon levels.
On Day 1 (the day after plating cells), each compound is added in triplicate to the cells. Plates are incubated for 72 h prior to determining luciferase levels. Enzyme activity was measured using a Bright-Glo Kit (cat. number E2620) manufactured by Promega Corporation. The following equation was used to generate a percent control value for each compound.
% Control=(Average Compound Value/Average Control)*100
The EC50 value was determined using GraphPad Prism and the following equation:
Y=Bottom+(Top−Bottom)/(1+10̂((LogIC50−X)*HillSlope))
EC50 values of compounds are determined several times in the replicon assay. […]

| SMILES | EC50 |
| --- | --- |
| COC(=O)N[C@H](C(=O)N1CCC[C@H]1C(=O)NCc1ccc(-c2ccc(-c3cnc([C@@H]4CCCN4C(=O)[C@@H](NC(=O)OC)[C@@H](C)OC)[nH]3)cc2)cc1)[C@@H](C)OC [Compound 106] | 10 to 999 nM |
| COC(=O)N[C@@H](C(=O)N1CCC[C@H]1c1ncc(-c2ccc(-c3ccc(C(=O)NC[C@@H]4CCCN4C(=O)[C@H](NC(=O)N4CCOCC4)c4ccccc4)cc3)cc2)[nH]1)c1ccccc1 [Compound 67] | < 1 nM |
| COC(=O)N[C@H](C(=O)N1CCC[C@H]1CNC(=O)c1ccc(-c2ccc3nc([C@@H]4CCCN4C(=O)[C@@H](NC(=O)OC)C(C)C)[nH]c3c2)cn1)C(C)C [Compound 115] | 10 to 999 nM |
| COC(=O)N[C@@H](C(=O)N1CCC[C@H]1CNC(=O)c1ccc(-c2ccc(-c3cnc([C@@H]4CCCN4C(=O)[C@H](NC(=O)OC)c4ccccc4)[nH]3)cn2)cc1)c1ccccc1 [Compound 79] | < 1 nM |
| COC(=O)N[C@@H](C(=O)N1CCC[C@H]1CNC(=O)c1ccc(-c2ccc(-c3cnc([C@@H]4CCCN4C(=O)[C@H](NC(=O)OC)c4ccccc4)[nH]3)nc2)cc1)c1ccccc1 [Compound 91] | < 1 nM |
| COC(=O)N[C@@H](C(=O)N[C@@H](C)c1ncc(-c2ccc(-c3ccc(C(=O)NC[C@@H]4CCCN4C(=O)[C@H](NC(=O)OC)c4ccccc4)nc3)cc2)[nH]1)c1ccccc1 [Compound 93] | < 1 nM |
| COC(=O)N[C@H](C(=O)N1CCC[C@H]1C(=O)NCc1ccc(-c2ccc3cc(-c4cnc([C@@H]5CCCN5C(=O)[C@@H](NC(=O)OC)C(C)C)[nH]4)ccc3n2)cc1)C(C)C [Compound 86] | 1 to 9.9 nM |
| C[C@H](NC(=O)[C@@H]1CCCN1C(=O)[C@H](NC(=O)C1CC1)c1ccccc1)c1ccc(-c2ccc(-c3cnc([C@@H]4CCCN4C(=O)[C@H](NC(=O)C4CC4)c4ccccc4)[nH]3)cc2)cc1 [Compound 37] | < 1 nM |
| COC(=O)N[C@H](C(=O)N1CCC[C@H]1C(=O)NCc1ccc(-c2ccc(-c3cnc([C@@H]4CCCN4C(=O)[C@@H](NC(=O)OC)C(C)C)[nH]3)cc2)cn1)C(C)C [Compound 119] | 10 to 999 nM |
| COC(=O)N[C@H](C(=O)N1CCC[C@H]1CNC(=O)c1ccc(-c2ccc(-c3cnc([C@@H]4CCCN4C(=O)[C@@H](NC(=O)OC)C(C)C)[nH]3)cc2)cc1)C(C)C [Compound 99] | < 1 nM |
| COC(=O)N[C@@H](C)C(=O)N1CCC[C@H]1C(=O)NCc1ccc(-c2ccc(-c3cnc([C@@H]4CCCN4C(=O)[C@H](C)NC(=O)OC)[nH]3)cc2)cc1 [Compound 104] | 10 to 999 nM |
| COC(=O)N[C@H](C(=O)N1CCC[C@H]1C(=O)NCc1ccc(-c2ccc3nc([C@@H]4CCCN4C(=O)[C@@H](NC(=O)OC)C(C)C)[nH]c3c2)cc1)C(C)C [Compound 87] | 1 to 9.9 nM |
| COC(=O)N[C@@H](C(=O)N1CCC[C@H]1CNC(=O)c1ccc(-c2ccc(-c3cnc([C@@H]4CCCN4C(=O)[C@H](NC(=O)N4CCN(C)CC4)c4ccccc4)[nH]3)cc2)cc1)c1ccccc1 [Compound 68] | < 1 nM |
| COC(=O)N[C@H](C(=O)N1CCC[C@H]1C(=O)Nc1ccc(-c2ccc3c(ccc4nc([C@@H]5CCCN5C(=O)[C@@H](NC(=O)OC)C(C)C)[nH]c43)c2)cc1)C(C)C [Compound 114] | < 1 nM |
| C[C@@H](NC(=O)C1CC1)C(=O)N1CCC[C@H]1C(=O)Nc1ccc(-c2ccc(-c3cnc([C@@H]4CCCN4C(=O)[C@@H](C)NC(=O)C4CC4)[nH]3)cc2)cc1 [Compound 28] | 1 to 9.9 nM |
| COC(=O)N[C@H](C(=O)N1CCC[C@H]1CNC(=O)c1ccc(-c2ccc3c(ccc4nc([C@@H]5CCCN5C(=O)[C@@H](NC(=O)OC)C(C)C)[nH]c43)c2)cc1)C(C)C [Compound 113] | < 1 nM |
| CC(C)(C)OC(=O)N1CCOCC1C(=O)Nc1ccc(-c2ccc(-c3cnc([C@@H]4CCCN4C(=O)OC(C)(C)C)[nH]3)cc2)cc1 (stereo partly drawn) [Compound 6] | 10 to 999 nM |
| COC(=O)N[C@H](C(=O)N1CCC[C@H]1c1ncc(-c2ccc(Oc3cccc(-c4cnc([C@@H]5CCCN5C(=O)[C@@H](NC(=O)OC)C(C)C)[nH]4)c3)cc2)[nH]1)C(C)C [Compound 70] | < 1 nM |
| O=C(N[C@@H](C(=O)N1CCC[C@H]1C(=O)Nc1ccc(-c2ccc(-c3cnc([C@@H]4CCCN4C(=O)[C@H](NC(=O)C4CC4)c4ccccc4)[nH]3)cc2)cc1)c1ccccc1)C1CC1 [Compound 27] | < 1 nM |
| O=C(N[C@@H](C(=O)N1CCC[C@H]1C(=O)NCc1ccc(-c2ccc(-c3cnc([C@@H]4CCCN4C(=O)[C@H](NC(=O)C4CC4)c4ccccc4)[nH]3)cc2)cc1)c1ccccc1)C1CC1 [Compound 43] | < 1 nM |
| COC(=O)N[C@H](C(=O)N[C@@H](C)c1ncc(-c2ccc(-c3ccc(C(=O)NC[C@@H]4CCCN4C(=O)[C@@H](NC(=O)OC)C(C)C)cc3)cc2)[nH]1)C(C)C [Compound 88] | < 1 nM |

| SMILES | EC50 |
| --- | --- |
| CC(C)[C@@H](NC(=O)OC(C)(C)C)C(=O)N1CCOC[C@H]1C(=O)Nc1ccc(-c2ccc(-c3cnc([C@@H]4COCCN4C(=O)[C@H](NC(=O)OC(C)(C)C)C(C)C)[nH]3)cc2)cc1 [Compound 18] | 10 to 999 nM |
| CC(C)(C)OC(=O)N1CCC[C@H]1C(=O)Nc1ccc(-c2ccc(-c3cnc([C@@H]4COCCN4C(=O)OC(C)(C)C)[nH]3)cc2)cc1 [Compound 5] | > 1000 nM |
| COC(=O)N[C@H](C(=O)N1CCC[C@H]1CNC(=O)c1ccc(-c2ccc(-c3cnc([C@@H]4CCCN4C(=O)[C@@H](NC(=O)OC)C(C)C)[nH]3)cn2)cc1)C(C)C [Compound 78] | < 1 nM |
| COC(=O)N[C@@H](C(=O)N1CCC[C@H]1c1ncc(-c2ccc(-c3ccc(NC(=O)[C@@H]4CCCN4C(=O)[C@@H](c4ccccc4)N(C)C)cc3)cc2)[nH]1)c1ccccc1 [Compound 60] | < 1 nM |
| COC(=O)N[C@H](C(=O)N1CCC[C@H]1C(=O)NCc1ccc(-c2ccc3nc([C@@H]4CCCN4C(=O)[C@@H](NC(=O)OC)C(C)C)[nH]c3c2)cn1)C(C)C [Compound 121] | 10 to 999 nM |
| CC(C)(C)OC(=O)N1CCOCC1C(=O)Nc1ccc(-c2ccc(-c3cnc([C@@H]4COCCN4C(=O)OC(C)(C)C)[nH]3)cc2)cc1 (stereo partly drawn) [Compound 4] | > 1000 nM |
| O=C(N[C@@H](C(=O)N1CCC[C@H]1c1ncc(-c2ccc(Sc3ccc(-c4cnc([C@@H]5CCCN5C(=O)[C@H](NC(=O)C5CC5)c5ccccc5)[nH]4)cc3)cc2)[nH]1)c1ccccc1)C1CC1 [Compound 50] | < 1 nM |
| COC(=O)N[C@@H](C)C(=O)N1CCC[C@H]1C(=O)N[C@H](C)c1ccc(-c2ccc(-c3cnc([C@@H]4CCCN4C(=O)[C@H](C)NC(=O)OC)[nH]3)cc2)cc1 [Compound 96] | 1 to 9.9 nM |
| COC(=O)N[C@H](C(=O)N1CCC[C@H]1C(=O)N[C@@H](C)c1ccc(-c2ccc(-c3cnc([C@@H]4CCCN4C(=O)[C@@H](NC(=O)OC)[C@@H](C)OC)[nH]3)cc2)cc1)[C@@H](C)OC [Compound 100] | < 1 nM |
| COC(=O)N[C@@H](C(=O)N1CCC[C@H]1c1ncc(-c2ccc(-c3ccc(C(=O)NC[C@@H]4CCCN4C(=O)[C@@H](c4ccccc4)N4CCCCC4)cc3)cc2)[nH]1)c1ccccc1 [Compound 64] | < 1 nM |
| COC(=O)N[C@H](C(=O)N1CCC[C@H]1c1nc2c([nH]1)-c1ccc(-c3ccc(NC(=O)[C@@H]4CCCN4C(=O)[C@H](NC(=O)OC)c4ccccc4)cc3)cc1CC2)C(C)C [Compound 117] | < 1 nM |
| O=C(N[C@@H](C(=O)N1CCC[C@H]1c1ncc(-c2ccc(Oc3ccc(-c4cnc([C@@H]5CCCN5C(=O)[C@H](NC(=O)C5CC5)c5ccccc5)[nH]4)cc3)cc2)[nH]1)c1ccccc1)C1CC1 [Compound 54] | < 1 nM |
| CN1CCN(C(=O)N[C@@H](C(=O)N2CCC[C@H]2COc2ccc(-c3ccc(-c4cnc([C@@H]5CCCN5C(=O)[C@H](NC(=O)N5CCN(C)CC5)c5ccccc5)[nH]4)cc3)cc2)c2ccccc2)CC1 [Compound 35] | 1 to 9.9 nM |
| O=C(N[C@@H](C(=O)N1CCOC[C@H]1C(=O)Nc1ccc(-c2ccc(-c3cnc([C@@H]4COCCN4C(=O)[C@H](NC(=O)C4CC4)c4ccccc4)[nH]3)cc2)cc1)c1ccccc1)C1CC1 [Compound 1] | < 1 nM |
| COC(=O)N[C@@H](C(=O)N1CCC[C@H]1C(=O)Nc1ccc(-c2ccc3nc([C@@H]4CCCN4C(=O)[C@H](NC(=O)OC)c4ccccc4)[nH]c3c2)cc1)c1ccccc1 [Compound 74] | < 1 nM |
| C[C@@H](NC(=O)OC(C)(C)C)C(=O)N1CCOC[C@H]1C(=O)Nc1ccc(-c2ccc(-c3cnc([C@@H]4CCCN4C(=O)[C@@H](C)NC(=O)OC(C)(C)C)[nH]3)cc2)cc1 [Compound 12] | 10 to 999 nM |
| C[C@@H](NC(=O)C1CC1)C(=O)N1CCC[C@H]1c1ncc(-c2ccc(Oc3ccc(-c4cnc([C@@H]5CCCN5C(=O)[C@@H](C)NC(=O)C5CC5)[nH]4)cc3)cc2)[nH]1 [Compound 58] | 10 to 999 nM |
| COC(=O)N[C@H](C(=O)N1CCC[C@H]1C(=O)N[C@@H](C)c1ccc(-c2ccc(-c3cnc([C@@H]4CCCN4C(=O)[C@@H](NC(=O)OC)C4CCOCC4)[nH]3)cc2)cc1)C1CCOCC1 [Compound 101] | 1 to 9.9 nM |
| CC(C)(C)OC(=O)N[C@@H](C(=O)N1CCC[C@H]1c1ncc(-c2ccc(Sc3ccc(-c4cnc([C@@H]5CCCN5C(=O)[C@H](NC(=O)OC(C)(C)C)c5ccccc5)[nH]4)cc3)cc2)[nH]1)c1ccccc1 [Compound 46] | < 1 nM |
| C[C@@H](NC(=O)[C@@H]1CCCN1C(=O)[C@H](NC(=O)OC(C)(C)C)c1ccccc1)c1ccc(-c2ccc(-c3cnc([C@@H]4CCCN4C(=O)[C@H](NC(=O)OC(C)(C)C)c4ccccc4)[nH]3)cc2)cc1 [Compound 39] | < 1 nM |
| COC(=O)N[C@@H](C(=O)N1CCC[C@H]1C(=O)NCc1ccc(-c2ccc(-c3cnc([C@@H]4CCCN4C(=O)[C@H](NC(=O)OC)c4ccccc4)[nH]3)cn2)cc1)c1ccccc1 [Compound 118] | < 1 nM |
